Common to all, as to test: DTP human tumour cell line panel, 48 h
Assay [1] has as its system SNB-75 CNS.
Assay [2] has as its system EKVX NSCLC.
Assay [3] concerns COLO 205 colon.
Assay [4] relates to RPMI-8226 leukemia.
Assay [5] concerns SK-MEL-5 melanoma.
The test system of assay [6] is M14 melanoma.
Assay [7] relates to BT-549 breast.
In assay [8] the test system is MCF7 breast.
Assay [9] deals with NCI-H23 lung.
Assay [10] concerns HCT-15 colon.
Assay [11] concerns SN12C renal.
Assay [12] deals with 786-0 renal.
Assay [13] deals with UACC-62 melanoma.
Assay [14] concerns KM12 colon.
In assay [15] the test system is UO-31 renal.
In assay [16] the test system is HCT-116 colon.
Assay [17] has as its system SF-295 CNS.
Assay [18] relates to HOP-92 NSCLC.
The subject of assay [19] is T-47D breast.

Structures are written as SMILES.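 A five-concentration, 48-hour dose response in 96-well plates underlies each endpoint, interpolated linearly between surrounding concentrations. TGI denotes the concentration required for complete inhibition of growth.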

As to `Cc1ccc(S(=O)(=O)Oc2nc3nc4ccccc4nc3nc2OS(=O)(=O)c2ccc(C)cc2)cc1`, the TGI in assay [1], in [2], in assay [3], in assay [4], in assay [5] and in assay [6] was greater than 100 µM each time. In addition, the concentration for total growth inhibition (TGI) in assay [7], in assay [8], in [9], in [10], in [11] and in assay [12] was greater than 100 µM each time. In addition, the TGI in [13], in assay [14], in assay [15], in assay [16] and in assay [17] was greater than 100 µM each time.

As to `O=c1c2cc(S(=O)(=O)Nc3ccc(Cl)cc3Cl)ccc2ncn1NS(=O)(=O)c1cccc2ccccc12`, the TGI in [1] is greater than 100 µM; in assay [2], greater than 100 µM; in assay [3], greater than 100 µM; in [4], greater than 100 µM; in assay [6], greater than 100 µM; in [7], 80.6 µM. In addition, the TGI in [8], in assay [9], in assay [10], in [11], in assay [12] and in assay [13] was greater than 100 µM throughout. Further, the TGI in assay [18] was 81.4 µM; in [14], greater than 100 µM; in assay [15], 62.3 µM; in assay [16] it was greater than 100 µM; in [17] it was greater than 100 µM.

In the case of `C=C(CO)[C@H]1Oc2ccc(C(C)=O)cc2[C@@H]1O`, the TGI in assay [1], in [2], in [3], in assay [4], in [5] and in assay [6] was greater than 100 µM each time. The TGI in assay [7], in assay [8], in assay [9], in assay [10], in assay [11] and in assay [12] was greater than 100 µM throughout. The TGI in [13], in assay [14], in assay [15], in assay [16], in assay [17] and in [19] was greater than 100 µM throughout.

Turning to `COc1c(Br)cc(/C=C(\C#N)c2ccccn2)cc1Br`, the TGI was 17.1 µM in assay [1]; 50.9 µM in [2]; greater than 100 µM in [3]; greater than 100 µM in [4]; greater than 100 µM in assay [5]; greater than 100 µM in assay [6]. The TGI was 94.8 µM in [7]; greater than 100 µM in assay [8]; greater than 100 µM in assay [9]; greater than 100 µM in assay [10]; greater than 100 µM in assay [11]; 25.6 µM in assay [12]. In addition, the TGI in [13] was 73.8 µM; in assay [14] it was greater than 100 µM; in assay [15] it was greater than 100 µM; in [16], greater than 100 µM; in assay [17] it was greater than 100 µM.

Turning to `O=c1c2n[nH]nc2nc2n1CC(c1ccccc1)S2` (centres undefined), the TGI in [1], in [2], in assay [3], in assay [4], in assay [5] and in assay [7] was greater than 100 µM each time. In addition, the TGI in assay [8], in assay [9], in assay [10], in assay [11], in assay [12] and in [13] was greater than 100 µM throughout. In addition, the TGI in [14], in assay [15], in assay [16], in assay [17] and in assay [19] was greater than 100 µM each time.

In the case of `Clc1ccc(-c2nc3ccc4ccccc4c3c3c2CCCC3)cc1`, the TGI in assay [1], in assay [2], in assay [3], in [4], in assay [5] and in assay [6] was greater than 100 µM each time. Moreover, the TGI in assay [7], in assay [8], in assay [9], in assay [10], in assay [12] and in assay [13] was greater than 100 µM throughout. Also, the TGI in assay [14], in [15], in [16] and in assay [17] was greater than 100 µM throughout.

On to `CCCCCCC1CC(=O)C1(Cl)Cl` (centres undefined), for which the TGI in [1] is 36 µM; in assay [2] it was greater than 100 µM; in assay [4], 2.48 µM; in assay [5] it was 31.2 µM; in assay [6], 62.6 µM; in [7], 48.6 µM. Further, the TGI worked out at 63.7 µM in [8]; 57.7 µM in assay [9]; 99.6 µM in assay [10]; 98.1 µM in [11]; 32.2 µM in assay [12]; 47.8 µM in assay [13]. The TGI in assay [14] is 55.7 µM; in assay [15], 34.2 µM; in assay [16] it was 30.4 µM; in assay [17] it was greater than 100 µM; in [19], greater than 100 µM.

On to `O=C(NCCCNCCCCNCCCNC(=O)c1cc(-c2ccccc2)nc2ccccc12)c1cc(-c2ccccc2)nc2ccccc12`, for which the TGI in [2] is 18 µM; in assay [5], 26.3 µM; in assay [6], 5.23 µM; in [7], 15.5 µM; in assay [8], 3.78 µM; in assay [9], greater than 24.1 µM. Further, the TGI in assay [10] amounted to 44.1 µM; in assay [11], 7.88 µM; in [12], 3 µM; in assay [13] it was 6.77 µM; in assay [18] it was 4.36 µM; in assay [15], 40 µM. Further, the TGI in assay [16] was greater than 100 µM; in assay [17], 14.4 µM; in assay [19], 12.1 µM.

A word on the TGI: it is the concentration at which net growth stops. High values mean lower sensitivity of the cells, low ones greater sensitivity of the cells.

The values above are taken from PubChem BioAssay (NCI).
